Ends that are not written are not given here.
Key:
LNCaP-A24 cells = assay: 6-hr 51Cr-release cytotoxicity assay of peptide-stimulated PBMCs (HLA-A24); type: cell-based, human; conditions: LNCaP-A24 vs LNCaP and HLA-A24^+ PHA-blastoid T cells; FIG. 2A
Method: In order to investigate the HLA-A24-restricted and prostate cancer-reactive cytotoxicity of peptide-stimulated PBMCs, an HLA-A24-expressing LNCaP cell line, which was designated as LNCaP-A24, was prepared. The LNCaP is an HLA-A24 negative prostate cancer cell line. To establish LNCaP cells stably expressing HLA-A24 molecules (designated as LNCaP-A24), a pcDNA3.1/Hygro vector (Invitrogen, Calif.), which was inserted with the HLA-A*2402 gene, was electroporated into the LNCaP cell line (ATCC number: CRL-1740), and selection was carried out with hygromycin B (Invitrogen) at a dose of 170 μg/ml. All cell lines were maintained in RPMI-1640 medium (Gibco BRL, Grand Island, N.Y., USA) supplemented with 10% FCS. LNCaP has previously been reported to produce PTHrP (17). A parental LNCaP cell line was negative for the cell surface expression of HLA-A24 molecules, whereas the LNCaP-A24 cell line expressed HLA-A24 molecules on their cell surface. Flow cytometric analysis was performed on LNCaP and LNCaP-A24 cells. These cells were stained with anti-HLA-A24 mAb, followed by FITC-conjugated anti-mouse IgG mAb. The dotted lines represent staining without the first rnAb. […]

PC93-A2 cells = assay: Cytotoxicity of peptide-stimulated PBMCs (HLA-A2); type: cell-based, human; conditions: PC93-A2 vs PC93 and PHA-stimulated T cell blasts; FIG. 4B, 5
Method: In a similar way to Example 2, it was examined whether or not PTHrP 42-51 and PTHrP 59-67 peptides could induce cancer-reactive CTLs in PBMCs derived from HLA-A2^+ healthy donors and prostate cancer patients. An HLA-A2-expressing PC93 prostate cancer cell line was prepared by constitutively expressing an HLA-A*0201 molecule on a PC93 cell which was a HLA-A2-prostate cancer cell line (established by Dr. K. Ohnishi, Department of Urology, Kyoto University) (PC93-A2 cell). The expression of the HLA-A*0201 molecule on the cell line was previously reported. In addition, the PC93 cells produced PTHrP at a level of 2.2 pmol/l (1×10^6 cell/ml for 24 hr).
Cytotoxicities of these peptide-stimulated PBMCs against PC93 cells, PC93-A2 cells, and PHA-stimulated T cell blasts are shown in FIG. 4B.

Row | Sequence | Induction of prostate cancer-reactive CTLs / cytotoxicity of peptide-stimulated PBMCs (LNCaP-A24 cells) | Induction of prostate cancer-reactive CTLs / cytotoxicity of peptide-stimulated PBMCs (PC93-A2 cells)
1 | RAVSEHQLL [PTHrP 36-44] | have the potential to induce prostate cancer-reactive CTLs | 
2 | FLHHLIAEI [PTHrP 59-67] |  | have the potential to induce prostate cancer-reactive CTLs
3 | QLLHDKGKSI |  | have the potential to induce prostate cancer-reactive CTLs
4 | RYLTQETNKV [PTHrP 102-111] | have the potential to induce prostate cancer-reactive CTLs | 
